Where a name gives a salt, the structure may show the parent alone.
Columns and labels:
[1] = In vivo pharmacokinetics, lung tissue homogenate (UPLC-MS/MS); design: species or system rat; settings: for CL/F (clearance) / Cmax / Tmax / half-life / MRT last: AH in rat lung tissue; for concentration at 2 min / concentration at 4 min / concentration at 10 min / concentration at 15 min / concentration at 30 min / concentration at 60 min / concentration at 120 min / concentration at 240 min / concentration at 360 min / Cmax / Tmax / half-life / MRT last: male; for concentration at 2 min / concentration at 4 min / concentration at 10 min / concentration at 15 min / concentration at 30 min / concentration at 60 min / concentration at 120 min / concentration at 240 min / concentration at 360 min: rat lung tissue homogenate, read-out: Drug concentration of AH in lung tissue; for Cmax / Tmax / half-life / MRT last: lung tissue (homogenate supernatant); for half-life: read-out: HLz (biological half-life) (converted); for MRT last: read-out: MRTlast (mean retention time)
Protocol: (§1) SPF-grade healthy SD male rats, body weight 180-220 g, purchased from SPF (Beijing) Biotechnology Co., Ltd (Certificate No. SCXK (Beijing) 2019-0010), were conventionally reared under (23±2)° C., humidity: (50±10)%. This study was conducted with the approval of the Animal Experiment Center of Tianjin University of Traditional Chinese Medicine.
(§2) 108 SPF-grade SD male rats were randomly divided into tail intravenous injection group and pulmonary administration group, with 9 time points of 2 min, 4 min, 10 min, 15 min, 30 min, 1 h, 2 h, 4 h and 6 h per group, 6 rats per time point per group. The rats were fasted for 12 h before the experiment, with water provided. The rats were weighed (to calculate the dose) and numbered, and both groups were intraperitoneally injected with 10% chloral hydrate at a dose of 2 mL/kg. Group 1 was administered BA/AH-DPI saline solution by tail intravenous injection at a dose of 9 mg/kg. Group 2 was administered 3 mg of BA/AH-DPI fine powder at the same dose by spray administration with a DP-4 tracheal insufflator (1.5 mL of air was pushed each time, 3-4 times consecutively). Blood was sampled from the abdominal aorta of the rats in both groups at the above time points after drug administration, and the rats were executed. The obtained whole blood was placed in a centrifuge tube with sodium heparin, centrifuged at 4000 r/min for 10 min, and the upper layer of plasma was separated and stored a refrigerator at −80° C. After blood collection, the thoracic cavity was quickly opened and the lungs of the rats were isolated. The small amount of floating blood on the surface of the lung tissue was washed with saline in an ice bath. The surface of the lung tissue was blotted with filter paper. The trachea was cut off, wrapped in tin foil and placed in a 10 mL centrifuge tube. The lung was weighed precisely, and stored in a refrigerator at −80° C.
The lung tissues were added to saline in a weight to volume ratio of 1:4 (g:mL). A homogenate was obtained by beating, dispersing and evenly grinding with a homogenizer under an ice water bath, and centrifuged at 6500 r/min for 20 min to obtain the supernatant of the lung tissue homogenate.
(§3) 100 μL of the plasma sample or lung tissue supernatant was precisely absorbed, and 200 μL (100 ng/mL) of methanol solution containing the internal standard was added. The mixture was vortexed and mixed for 3 min, and centrifuged at 12000 r/min for 10 min to obtain the supernatant as the finished sample. The contents of BA and AH were determined by UPLC-MS/MS method.
(§4) Electrospray ion source (ESI source); scan mode: positive (ESI+) detection; detection mode: multi-reactive ion monitoring (MRM). Electrospray voltage: 4 kV; atomization gas: N2; spray gas flow rate (Gas1): 15 psi; ion source temperature: 300° C.
(§5) Meaning of pharmacokinetic parameters: HLz was the biological half-life, i.e., the time required for the amount or blood concentration of the drug in the body to decrease by half; Tmax was the time to peak, i.e., the time required to reach the peak concentration of the drug after administration. Cmax was the peak drug concentration, i.e., the highest blood concentration that occurred after administration of the drug. AUC was the area enclosed by the blood drug concentration curve against the time axis. Vz/F was the apparent volume of distribution, the ratio constant of the amount of drug in the body to the blood concentration when the drug reached dynamic equilibrium in the body. CL/F was the clearance, i.e., the number of apparent volume of distribution of the drug removed from the body per unit time. AUMC was the first order moment of the drug-time curve, i.e. the area under the curse of the product of time and blood concentration versus time. MRTlast was the mean retention time, i.e., the average of the residence time of drug molecules in the body.

[2] = Particle size distribution test, laser particle size analyzer, dry dispersion; assay type: physicochemical
Protocol: The particle size distribution of DPI dry powder was measured by dry dispersion method using laser particle size analyzer, and Dv10, Dv50, Dv90, VMD (Volume median diameter) and SMD (Sauter mean diameter) were determined, respectively.

[3] = In vivo pharmacokinetics, plasma (UPLC-MS/MS); design: species or system rat; settings: for half-life: read-out: HLz (biological half-life) (converted); for MRT last: read-out: MRTlast (mean retention time); for concentration at 2 min / concentration at 10 min / concentration at 15 min / concentration at 30 min / concentration at 60 min / concentration at 120 min / concentration at 240 min / concentration at 360 min / concentration at 4 min: read-out: Blood concentration of AH
Protocol: as §1, §2, §3, §4, §5

[4] = Sprague-Dawley (SD), inhaled, pulmonary administration BA/AH-DPI 9 mg/kg
[5] = Sprague-Dawley (SD), inhaled or intranasal, pulmonary administration group, BA/AH-DPI 9 mg/kg
[6] = Sprague-Dawley (SD), tail intravenous injection group, 9 mg/kg
[7] = Sprague-Dawley (SD), tail intravenous injection BA/AH-DPI saline solution 9 mg/kg
[8] = male, SD, inhaled or intranasal, AH in rat plasma, pulmonary administration group, BA/AH-DPI 9 mg/kg
[9] = male, SD, inhaled, rat plasma, pulmonary administration BA/AH-DPI 9 mg/kg
[10] = male, SD, AH in rat plasma, tail intravenous injection group, 9 mg/kg
[11] = male, SD, rat plasma, tail intravenous injection BA/AH-DPI saline solution 9 mg/kg
[12] = male, Sprague-Dawley (SD), rat plasma, tail intravenous injection BA/AH-DPI saline solution 9 mg/kg

CL/F (clearance) ([1]; pulmonary administration group, BA/AH-DPI 9 mg/kg): 876.24 ± 146.55 g/h/kg | CL/F (clearance) ([1]; tail intravenous injection group, 9 mg/kg): 1454.72 ± 257.24 g/h/kg | concentration at 2 min ([1]; SD, tail intravenous injection BA/AH-DPI saline solution 9 mg/kg): 3230 ± 973 ng/mL | concentration at 2 min [1, 4]: 7610 ± 1750 ng/mL | concentration at 4 min [1, 4]: 5150 ± 879 ng/mL | concentration at 10 min [1, 4]: 2450 ± 384 ng/mL | concentration at 15 min [1, 4]: 1320 ± 524 ng/mL | concentration at 30 min [1, 4]: 798 ± 289 ng/mL | concentration at 60 min [1, 4]: 503 ± 200 ng/mL | concentration at 120 min [1, 4]: 256 ± 139 ng/mL | concentration at 240 min [1, 4]: 153 ± 60 ng/mL | concentration at 360 min [1, 4]: 66.2 ± 38.2 ng/mL | Cmax [1, 5]: 30400 ± 6970 ng/g | Tmax [1, 5]: 2.34 ± 0.78 min | half-life [1, 5]: 91.8 ± 26.4 min | MRT last [1, 5]: 72.6 ± 12 min | Cmax [1, 6]: 12900 ± 3890 ng/g | Tmax [1, 6]: 1.98 min | half-life [1, 6]: 72.6 ± 11.4 min | MRT last [1, 6]: 60.6 ± 7.2 min | concentration at 4 min [1, 7]: 1780 ± 454 ng/mL | concentration at 10 min [1, 7]: 1230 ± 183 ng/mL | concentration at 15 min [1, 7]: 1030 ± 210 ng/mL | concentration at 30 min [1, 7]: 780 ± 243 ng/mL | concentration at 60 min [1, 7]: 352 ± 83.1 ng/mL | concentration at 120 min [1, 7]: 135 ± 58.9 ng/mL | concentration at 240 min [1, 7]: 68.4 ± 24.5 ng/mL | concentration at 360 min [1, 7]: 23.4 ± 10.5 ng/mL | D10 [2]: 0.77 μm | D50 [2]: 3.07 μm | D90 [2]: 8.43 μm | SMD (Sauter mean diameter) [2]: 1.79 μm | VMD (Volume median diameter) [2]: 3.93 μm | <3 μm ([2]; fraction of particles): 49.10% | <5 μm ([2]; fraction of particles): 70.30% | CL/F (clearance) ([3]; AH in rat plasma, tail intravenous injection group, 9 mg/kg): 169.3805 ± 53.272 mL/min/kg | Cmax [3, 8]: 1770 ± 382 ng/mL | CL/F ([3]; male, SD, inhaled or intranasal, AH in rat plasma, pulmonary administration group, BA/AH-DPI 9 mg/kg, read-out: CL/F (clearance) (converted)): 237 mL/min/kg | half-life [3, 8]: 109 ± 39.6 min | MRT last [3, 8]: 49.8 ± 6 min | Vd/F ([3]; male, SD, inhaled or intranasal, AH in rat plasma, pulmonary administration group, BA/AH-DPI 9 mg/kg, read-out: Vz/F (apparent volume of distribution)): 37.2 ± 15.6 L/kg | bioavailability ([3]; male, SD, inhaled, rat plasma, pulmonary administration of BA/AH-DPI vs tail intravenous injection, 9 mg/kg, read-out: Absolute bioavailability): 53.5% | concentration at 2 min [3, 9]: 763 ± 101 ng/mL | concentration at 10 min [3, 9]: 1130 ± 170 ng/mL | concentration at 15 min [3, 9]: 464 ± 191 ng/mL | concentration at 30 min [3, 9]: 280 ± 75.8 ng/mL | concentration at 60 min [3, 9]: 124 ± 35.3 ng/mL | concentration at 120 min [3, 9]: 40.2 ± 21.1 ng/mL | concentration at 240 min [3, 9]: 21 ± 6.64 ng/mL | concentration at 360 min [3, 9]: 8.57 ± 0.38 ng/mL | Cmax [3, 10]: 3300 ± 1440 ng/mL | Tmax [3, 10]: 1.98 min | half-life [3, 10]: 146 ± 53.4 min | MRT last [3, 10]: 49.2 ± 10.2 min | concentration at 10 min [3, 11]: 395 ± 142 ng/mL | concentration at 15 min [3, 11]: 306 ± 140 ng/mL | concentration at 30 min [3, 11]: 252 ± 116 ng/mL | concentration at 60 min [3, 11]: 148 ± 58.7 ng/mL | concentration at 120 min [3, 11]: 49.4 ± 23 ng/mL | concentration at 240 min [3, 11]: 33.9 ± 12.2 ng/mL | concentration at 360 min [3, 11]: 18.9 ± 6.61 ng/mL | Tmax ([3]; male, Sprague-Dawley (SD), inhaled or intranasal, AH in rat plasma, pulmonary administration group, BA/AH-DPI 9 mg/kg): 4.02 min | concentration at 4 min ([3]; male, Sprague-Dawley (SD), inhaled, rat plasma, pulmonary administration BA/AH-DPI 9 mg/kg): 1770 ± 382 ng/mL | concentration at 2 min [3, 12]: 3300 ± 1690 ng/mL | concentration at 4 min [3, 12]: 598 ± 233 ng/mL | Time of maximum blood concentration in plasma ([3]; rat, pulmonary administration of BA/AH-DPI 9 mg/kg): 4 min
SMILES: Nc1c(Br)cc(Br)cc1CNC1CCC(O)CC1 (stereo not drawn) [AH, ambroxol hydrochloride]

From patent US20240115496A1, “A COMPOUND DRY POWDER INHALANT AND USE THEREOF” (TIANJIN UNIVERSITY OF TRADITIONAL CHINESE MEDICINE, priority 2021, published 2024)
